The target in series [1] is T1, hCB2 receptor (Homo sapiens, UniProt P34972). As to the kind of experiment: Radioligand competition binding, [3H]CP-55,940, membranes from HEK293 cells expressing human CB2. Details: expressed in transfected cells; host or cells: HEK293. The note with it: for greater affinity for mCB2 than for hCB2: from Ki values; for Ki: read-out: Ki hCB2; for hCB2/mCB2 / rCB1/hCB2: ratio of Ki values; for hCB2/mCB2: hCB2 over mCB2; for rCB1/hCB2: rCB1 over hCB2. As to the method: Indeed, in our original work on the cannabilactone class of compounds, we have identified species-specific variation in CB2 affinity. For this reason, the key compounds were also assayed using membranes from HEK293 cells expressing human CB2 (hCB2).
T1 sequence (P34972 whole entry): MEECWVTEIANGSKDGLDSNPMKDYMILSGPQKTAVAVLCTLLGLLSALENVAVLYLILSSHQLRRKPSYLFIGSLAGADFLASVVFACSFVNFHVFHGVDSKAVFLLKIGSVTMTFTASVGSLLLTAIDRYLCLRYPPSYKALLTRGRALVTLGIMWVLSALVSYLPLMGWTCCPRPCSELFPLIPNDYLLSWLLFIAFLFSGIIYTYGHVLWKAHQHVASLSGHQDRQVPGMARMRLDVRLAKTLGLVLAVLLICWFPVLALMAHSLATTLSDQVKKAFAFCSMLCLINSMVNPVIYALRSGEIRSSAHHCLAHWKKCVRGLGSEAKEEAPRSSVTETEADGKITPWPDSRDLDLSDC
(§1) Results from the competition assays were analyzed using nonlinear regression to determine the IC50 values for the ligand [59]; Ki values were calculated from the IC50 (Prism by GraphPad Software, Inc.). Each experiment was performed in triplicate and Ki values determined from three independent experiments and are expressed as the mean of the three values.

Another series concerns the target T2, rat CB1 receptor (Rattus norvegicus, UniProt P20272).
T2 construct: membrane preparations from rat brain; from tissue; host or cells: rat brain membranes
As to the kind of experiment: Radioligand competition binding, [3H]CP-55,940, rat brain membranes. As to the method:
(§2) Inhibition constant values (Ki) from the respective competition binding curves are listed in Table 1 in which our first generation cannabilactone analog AM1714 is included for comparison. The current data of AM1714 for mCB2 are slightly different when compared to those we published earlier. This is because the compound was first assayed in a different mCB2 receptor preparation, e.g., mouse spleen membrane.
as §1
A general note: Loss of bound radioactivity is the signal in a displacement assay; it reports binding, not function.

The target in series [2] is T1, hCB2 receptor. Put plainly: cAMP assay: decrease in forskolin-stimulated cAMP in HEK293 cells stably expressing hCB2. The class given is cell-based. More on the design: expressed in transfected cells. The note with it: for classification at hCB2: forskolin-stimulated cAMP assay; for E(max): maximum inhibition of forskolin stimulated cAMP levels, as percentage of CP-55,940 response at 500 nM. In general terms: cAMP levels reflect the balance of adenylyl cyclase and phosphodiesterase activity.
Experimental: HEK293 cells stably expressing hCB2 receptors were used for the studies. The cAMP assay was carried out using PerkinElmer’s Lance ultra cAMP kit following the protocol of the manufacturer. Briefly, the assays were carried out in 384-well plates using 1000–1500 cells/well. The cells were harvested with non-enzymatic cell dissociation reagent Versene, washed once with HBSS and resuspended in the stimulation buffer. The various concentrations of the test compound (5 μL) in forskolin (2 μM final concentration) containing stimulation buffer were added to the plate followed by the cell suspension (5 μL). Cells were stimulated for 30 min at room temperature. Eu-cAMP tracer working solution (5 μL) and Ulight-anti-cAMP working solution (5 μL) were then added to the plate and incubated at room temperature for 60 min. The data were collected on a Perkin-Elmer Envision instrument. The EC50 values were determined by non-linear regression analysis using GraphPad Prism software (GraphPad Software, Inc., San Diego, CA, USA).

The next series concerns the target T3, mouse CB2 receptor (Mus musculus, UniProt P47936).
T3 construct: expressed in transfected cells; host or cells: HEK293
Put plainly: Radioligand competition binding, [3H]CP-55,940, membranes from HEK293 cells expressing mouse CB2. The settings on record: for rCB1/mCB2: ratio of Ki values, rCB1 over mCB2; for selectivity for mCB2 over rCB1: from Ki values. The procedure:
as §2, §1

Read-outs that look alike come from different tables or passages of the source.

T3 sequence (P47936 whole entry): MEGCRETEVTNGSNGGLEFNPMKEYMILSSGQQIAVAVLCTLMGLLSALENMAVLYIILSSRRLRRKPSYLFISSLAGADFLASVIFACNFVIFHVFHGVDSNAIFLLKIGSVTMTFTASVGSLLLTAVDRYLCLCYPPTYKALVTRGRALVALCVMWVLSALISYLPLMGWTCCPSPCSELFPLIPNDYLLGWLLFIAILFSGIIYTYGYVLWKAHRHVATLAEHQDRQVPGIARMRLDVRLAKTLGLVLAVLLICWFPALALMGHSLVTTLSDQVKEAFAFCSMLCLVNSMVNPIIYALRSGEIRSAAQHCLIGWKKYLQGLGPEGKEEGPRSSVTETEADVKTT
T2 sequence (P20272 whole entry): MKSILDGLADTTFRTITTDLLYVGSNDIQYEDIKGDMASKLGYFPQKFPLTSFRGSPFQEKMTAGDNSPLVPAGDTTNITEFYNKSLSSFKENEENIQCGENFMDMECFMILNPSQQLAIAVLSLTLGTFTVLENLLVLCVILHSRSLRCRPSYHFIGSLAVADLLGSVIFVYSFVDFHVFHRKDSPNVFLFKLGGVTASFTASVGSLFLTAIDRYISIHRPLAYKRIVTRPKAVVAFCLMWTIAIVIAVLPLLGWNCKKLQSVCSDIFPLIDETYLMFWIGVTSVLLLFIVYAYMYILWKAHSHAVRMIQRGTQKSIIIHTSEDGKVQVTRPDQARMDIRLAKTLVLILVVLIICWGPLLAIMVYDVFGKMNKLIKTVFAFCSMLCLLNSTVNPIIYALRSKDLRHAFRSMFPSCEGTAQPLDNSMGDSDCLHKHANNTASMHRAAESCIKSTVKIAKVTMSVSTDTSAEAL

For the compound `N#CCCCCCC1(c2cc(O)c3c(c2)oc(=O)c2ccc(O)cc23)CCCC1` [Compound 3f, 3-[1-(5-Cyanopentyl)cyclopentyl]-1,9-dihydroxy-6H-dibenzo[b,d]pyran-6-one], at hCB2 receptor [1], the “greater affinity for mCB2 than for hCB2” value turned out to be 7 fold; the Ki (as a rule, the dissociation constant of the complex between target and ligand, obtained from inhibition or displacement) was determined as 33.8 ± 10.4 nM. Also, the affinity at rat CB1 receptor corresponds to a Ki of 640 ± 152 nM. For the same compound, on hCB2 receptor [2], the response was half-maximal at 3.7 ± 1.5 nM (EC50), the “classification at hCB2” value was “agonist” and the “E(max)” value amounted to 89%. Moreover, the “classification at hCB2” value on hCB2 receptor [2] (listed as AM4346) is listed as “potent CB2 agonist”. Further, the Ki at mouse CB2 receptor (read-out: Ki mCB2) is 4.9 ± 1.2 nM.

As for `N#CCCCC1(c2cc(O)c3c(c2)oc(=O)c2ccc(O)cc23)CCCC1` [Compound 3g, 3-[1-(3-Cyanopropyl)cyclopentyl]-1,9-dihydroxy-6H-dibenzo[b,d]pyran-6-one], the melting point (commonly the temperature of the solid-liquid transition) fell in the range of 118 to 120 °C. At rat CB1 receptor (read-out: Ki rCB1), the Ki came out at 290 ± 64 nM. At mouse CB2 receptor, the inhibitory constant (Ki) is 17.9 ± 5.8 nM and the rCB1/mCB2 stood at 16.2.

On to `CCCCCCC1(c2cc(O)c3c(c2)oc(=O)c2ccc(O)cc23)CCCC1` [Compound 3d, 3-(1-Hexyl-cyclopentyl]-1,9-dihydroxy-6H-dibenzo[b,d]pyran-6-one], for which the melting point was 153 to 155 °C. Moreover, at hCB2 receptor [1], the “greater affinity for mCB2 than for hCB2” value was 3 fold, the hCB2/mCB2 stood at 3.3, the rCB1/hCB2 is 9.5 and the Ki worked out at 28 ± 9.7 nM. This compound also gave a Ki on rat CB1 receptor of 266 ± 58 nM. Besides, on mouse CB2 receptor, the “selectivity for mCB2 over rCB1” value is 21- to 32 fold and the rCB1/mCB2 worked out at 31.7. The Ki on mouse CB2 receptor (read-out: Ki mCB2) was 8.4 ± 2.5 nM.

`CC(C)N(C(=O)c1ccc(O)cc1-c1c(O)cc(C2(CCCCCBr)CCCC2)cc1O)C(C)C` [Compound 23b, 4′-[1-(5-Bromopentyl)cyclopentyl]-2′,5,6′-trihydroxy-N,N-diisopropyl-[1,1′-biphenyl]-2-carboxamide] displayed a melting point of 190 to 192 °C. The Ki on rat CB1 receptor (read-out: Ki rCB1) came to 745 ± 215 nM. At mouse CB2 receptor, the inhibition constant (Ki) was 17.4 ± 4.8 nM and the rCB1/mCB2 stood at 42.8.

`N#CCCCCC1(c2cc(O)c3c(c2)oc(=O)c2ccc(O)cc23)CCCC1` [Compound 3e, 3-[1-(4-Cyanobutyl)cyclopentyl]-1,9-dihydroxy-6H-dibenzo[b,d]pyran-6-one] returned a melting point of 138 to 140 °C. In addition, the Ki at rat CB1 receptor (read-out: Ki rCB1) was determined as 304 ± 73 nM. Also, on mouse CB2 receptor, the Ki turned out to be 11.8 ± 4.1 nM and the rCB1/mCB2 is listed as 25.7.

On to `O=c1oc2cc(C3(CCCCCBr)CCCC3)cc(O)c2c2cc(O)ccc12` [Compound 3b, 3-[1-(5-Bromopentyl)cyclopentyl]-1,9-dihydroxy-6H-dibenzo[b,d]pyran-6-one], for which the inhibition constant Ki at rat CB1 receptor (read-out: Ki rCB1) worked out at 370 ± 130 nM; on mouse CB2 receptor, 16.3 ± 5.2 nM.

For the compound `CCCCCCC1(c2cc(O)c(-c3cc(O)ccc3C(=O)N(C(C)C)C(C)C)c(O)c2)CCCC1` [Compound 23d, 4′-(1-Hexyl-cyclopentyl)-2′,5,6′-trihydroxy-N,N-diisopropyl-[1,1′-biphenyl]-2-carboxamide], the melting point was in the range of 185 to 187 °C. Moreover, the Ki on rat CB1 receptor (read-out: Ki rCB1) came out at 341 ± 100 nM. Further, the “response in hCB2 cAMP assay” value on hCB2 receptor [2] (concentrations up to 2 μM) is “failed to show any responses”. For the same compound, at mouse CB2 receptor, affinity was put at a Ki of 5.7 ± 1.5 nM, the “selectivity for mCB2 over rCB1” value is given as 60 fold and the rCB1/mCB2 was found to be 59.8.

`CC(C)N(C(=O)c1ccc(O)cc1-c1c(O)cc(C2(CCCBr)CCCC2)cc1O)C(C)C` [Compound 23c, 4′-[1-(3-Bromopropyl)cyclopentyl]-2′,5,6′-trihydroxy-N,N-diisopropyl-[1,1′-biphenyl]-2-carboxamide]: the melting point lay within 178 to 180 °C. The Ki at rat CB1 receptor (read-out: Ki rCB1) amounted to 229 ± 70 nM. Moreover, on mouse CB2 receptor, the affinity corresponds to a Ki of 10.5 ± 3.5 nM and the rCB1/mCB2 is 21.8.

As for `CCCCCCC(C)(C)c1cc(O)c2c(c1)oc(=O)c1ccc(O)cc12` [Compound 1b, reference compound], at hCB2 receptor [1], the “greater affinity for mCB2 than for hCB2” value is recorded as 18 fold, the hCB2/mCB2 was 17.7, the rCB1/hCB2 was 1.2 and the inhibitory constant (Ki) turned out to be 83.6 ± 23.2 nM. For the same compound, the affinity on rat CB1 receptor, expressed as Ki, was 100 ± 24 nM. In addition, at hCB2 receptor [2], the EC50 (usually the midpoint of the concentration-response curve) came to 36.9 ± 6.8 nM, the “classification at hCB2” value was “agonist” and the “E(max)” value is 77%. Further, at mouse CB2 receptor, the “selectivity for mCB2 over rCB1” value was 21- to 32 fold and the rCB1/mCB2 was determined as 21.3. Moreover, the Ki on mouse CB2 receptor (read-out: Ki mCB2) was found to be 4.7 ± 1.8 nM.

`O=c1oc2cc(C3(CCCBr)CCCC3)cc(O)c2c2cc(O)ccc12` [Compound 3c, 3-[1-(3-Bromopropyl)cyclopentyl]-1,9-dihydroxy-6H-dibenzo[b,d]pyran-6-one]: the Ki on rat CB1 receptor (read-out: Ki rCB1) amounted to 405 ± 122 nM; at mouse CB2 receptor it was 24.3 ± 3.9 nM.

On to `CCCCCCC(C)(C)c1cc(O)c2c(c1)oc(=O)c1ccc(OC)cc12` [Compound 1a], for which, at hCB2 receptor [2], the EC50 worked out at 10.5 ± 2.5 nM, the “classification at hCB2” value is given as “agonist” and the “E(max)” value worked out at 73%.

In turn, `O=c1oc2cc(C3(CCCCBr)CCCC3)cc(O)c2c2cc(O)ccc12` [Compound 3a, 3-[1-(4-Bromobutyl)cyclopentyl]-1,9-dihydroxy-6H-dibenzo[b,d]pyran-6-one] showed a melting point of 96 to 98 °C. For the same compound, at rat CB1 receptor (read-out: Ki rCB1), the inhibition constant Ki was determined as 390 ± 132 nM. At mouse CB2 receptor, the affinity corresponds to a Ki of 20.8 ± 5.9 nM and the rCB1/mCB2 was found to be 18.8.

In turn, `CC(C)N(C(=O)c1ccc(O)cc1-c1c(O)cc(C2(CCCCBr)CCCC2)cc1O)C(C)C` [Compound 23a, 4′-[1-(4-Bromobutyl)cyclopentyl]-2′,5,6′-trihydroxy-N,N-diisopropyl-[1,1′-biphenyl]-2-carboxamide] registered a melting point of 183 to 185 °C. Besides, the Ki at rat CB1 receptor (read-out: Ki rCB1) came to 702 ± 220 nM. At mouse CB2 receptor, affinity was put at a Ki of 22.4 ± 4.5 nM and the rCB1/mCB2 is listed as 31.3.

The values are drawn from PMC6804212, “Chain Substituted Cannabilactones with Selectivity for the CB2 Cannabinoid Receptor” (Molecules, 2019).
